# Measurements reported in US7879792B2, “Synthetic peptide inhibitors of thrombin and thrombin activation of protease activated receptors 1 and 4” (The Regents of the University of Michigan, priority 2005, dated 2011).
# Read-outs that look alike come from different tables or passages of the source. Where a SMILES comes first, the peptide text is derived from it.
# Legend:
# [1] = system: γ-thrombin-induced platelet aggregation; assay: γ-thrombin-induced platelet aggregation in human platelet-rich plasma; format: cell-based; settings: for Concentration of Peptide [mM] That Gives 100% Inhibition: 40 nM human gamma thrombin, human platelet-rich plasma; for concentration that abolished γ-thrombin-induced platelet aggregation: 40 nM γ-thrombin
# Method: Fresh whole blood was collected and mixed with 0.013 M sodium citrate and platelet-rich plasma was prepared according to the method of Meloni et al., J. Biol. Chem. 266, 6786 (1991). Platelet-rich plasma with a normalized platelet count between 2-2.5×10^8 platelets/ml was added to a cuvette of an aggregometer (Chronlog Corp., Havertown, Pa.), standardized using the protocol of Meloni et al., supra. Peptides to be examined were added to the cuvette and the mixture stabilized for a few moments. Once the baseline was stabilized, γ-thrombin (10-70 nM) (Haematologic Technologies, Essex Junction, Vt.) was added to determine the minimal concentration of the agonist necessary to achieve full platelet aggregation. All investigations with peptides were performed using threshold concentrations of γ-thrombin. Aggregation was allowed to proceed for 5 minutes before stopping.
# Table III is a tabulation of the library of peptides prepared and their influence on γ-thrombin-induced platelet aggregation in platelet-rich plasma. […] The numbers in the column represent the minimal concentration (mM) of the peptide that blocked 100% γ-thrombin-induced platelet aggregation of platelets in human platelet-rich plasma.
# Human platelet samples were stimulated with 40 nM human gamma thrombin in each experiment.
# [2] = system: normal human lung fibroblasts (NHLF); assay: α-thrombin-induced calcium mobilization in normal human lung fibroblasts; format: cell-based; settings: 2 nM alpha thrombin
# Method: The second assay developed to assess peptides from the combinatorial libraries uses inhibition of α-thrombin-induced calcium mobilization in fibroblasts. Normal human lung fibroblasts (NHLF) were purchased from Clonetics, San Diego, Calif., an affiliate of Bio-Wittaker, Walkersville, Md. The cytoplasmic free Ca^2+ concentration ([Ca^2+]i) was measured using the fluorescent Ca^2+ indicator fura-2 (Molecular Probes, Inc., Eugene, Oreg.). Suspension of fibroblasts in Hepes-Tyrode's buffer were loaded with fura-2 by incubation at 37° C. with 2 μM fura-2/acetoxymethyl ester for 45 minutes according to the method of Rasmussen et al., J. Biol. Chem. 268, 14322 (1993). The labeled fibroblasts were separated from excess probe by washing by centrifugation at 1000 rpm (180 xg). Aliquots of the labeled fibroblasts were transferred into a quartz cuvette with a magnetic stirrer, which was then placed in a thermostatically controlled chamber at 37° C. in a fluorescence spectrophotometer (Perkin-Elmer LS50B spectrofluorometer, Chicago, Ill.). Reagents, test peptide, and α-thrombin (0.25-2 nM), were sequentially added directly to the cuvette. The excitation wavelengths varied between 340 and 380 nm. Fluorescence was measured by recording emitted light at 510 nm as reported by Fisher et al., Mol Pharm. 35, 195 (1989). The minimum emission was determined on a solubilized fibroblast sample in the presence of 10 mM EDTA; maximum emission was determined on the same sample with 10 mM Ca^2+ added. The intrafibroblast free Ca^2+ concentration was calculated by the method of Grykiewicz et al., J. Biol. Chem. 260, 3440 (1985). The ratio of the fluorescence readings was calculated as R=340/380 nm and processed according to the equation [Ca^2+]i=KD((R−Rmin)/Rmax−R))(Sf2/Sb2) to determine the intrafibroblast free Ca^2+ concentration. The KD for fura-2 was assumed to be 224 nM. Rmax and Rmin are the maximum and minimum fluorescence ratios measured at the end of the experiment, respectively; Sf2 and Sb2 are the fluorescence values at 380 nm in the absence and presence of saturating [Ca^2+], respectively. The reaction was monitored for 3-5 minutes.
# [3] = system: normal human citrated plasma; assay: activated partial thromboplastin time (APTT); format: biochemical
# Method: (§1) The influence of the various peptide formulations used in the present invention on established coagulation-based assays was determined. The activated partial thromboplastin time (APTT) is performed by mixing 0.05 ml normal human citrated plasma with 0.05 ml activated partial thromboplastin reagent purchased from Organon Teknika, Research Triangle Park, NC in the absence or presence of a peptide inhibitor. After incubation for 5 min at 37° C., the mixture is recalcified with 0.05 ml of 30 mM calcium chloride and the time to clot formation is measured in an Amelung KC4A instrument (Sigma Chemical Corp, St. Louis, Mo.) (Hasan et al. Thrombosis and Haemostasis. 82, 1182-1187 (1999)). The prothrombin time (PT) is performed by mixing 0.05 ml normal human citrated plasma with 0.05 ml Simplastin (Organon Teknika, Research Triangle Park, NC) followed by incubation for 3 min at 37° C. in the absence or presence of a peptide inhibitor. At the addition of 0.05 ml of 30 mM calcium chloride, the time to clot formation is measured in an KC4A instrument (Sigma Chemical Corp, St. Louis, Mo.) (Hasan et al. Thrombosis and Haemostasis. 82, 1182-1187 (1999)). The thrombin clotting time (TCT) is performed by adding 0.1 ml normal human citrated plasma in the absence or presence of a peptide inhibitor and 0.05 ml of a α-thrombin solution such that the final concentration of the thrombin in the entire mixture was 1 nM. Upon addition of the thrombin, the time to clot formation is measured in an KC4A instrument (Sigma Chemical Corp, St. Louis, Mo.).
# [4] = system: normal human citrated plasma; assay: prothrombin time (PT); format: biochemical
# Method: as §1
# [5] = system: normal human citrated plasma; assay: thrombin clotting time (TCT); format: biochemical; settings: 1 nM thrombin
# Method: as §1
# human α-thrombin = human α-thrombin (Homo sapiens, UniProt P00734); assay: inhibition of α-thrombin hydrolysis of chromogenic substrate; format: biochemical; settings: Ki (μM) + SD, αIIa (2 nM), alpha-thrombin 2 nM, Sar-Pro-Arg-paranitroanilide
# γ-thrombin = assay: inhibition of γ-thrombin hydrolysis of chromogenic substrate; format: biochemical, human; settings: read-out: Ki (μM) + SD, γIIa (2 nM), gamma-thrombin 2 nM, Sar-Pro-Arg-paranitroanilide
SMILES,Concentration of Peptide [mM] That Gives 100% Inhibition [1] [mM],concentration that abolished γ-thrombin-induced platelet aggregation [1] [µM],inhibition of thrombin-induced calcium mobilization ([2]; 0.005 mM peptide) [%],inhibition of thrombin-induced calcium mobilization ([2]; 0.02 mM peptide) [%],peptide concentration with significant prolongation (p<0.05) of the APTT [3] [µM],peptide concentration with significant prolongation (p<0.05) of the PT [4] [µM],peptide concentration with significant prolongation (p<0.05) of the TCT [5] [µM],Ki (human α-thrombin) [µM],Ki (γ-thrombin) [µM],Ki (γ-thrombin; listed as rOicPsF(p-I)) [µM],Ki (γ-thrombin; listed as rOicPsF(p-NO2)) [µM]
"C[C@@H](NC(=O)[C@@H]1CCCN1C(=O)[C@@H]1C[C@@H]2CCCC[C@@H]2N1C(=O)[C@H](N)CCCNC(=N)N)C(=O)N[C@@H](Cc1ccc(Br)cc1)C(N)=O [rOicPaF(p-Br), D-Arg-Oic-Pro-D-Ala-Phe(p-Br)] (HELM PEPTIDE1{[dR].[O=C([C@@H]1C[C@@H]2CCCC[C@@H]2N1[*:1])[*:2]].P.[dA].[O=C([C@H](Cc1ccc(Br)cc1)N[*:1])[*:2]].[am]}$$$$V2.0)",0.018,18,35,84,12.5,6.25,0.78,6.4 to 10.6,48.7 ± 7,–,–
"C[C@@H](NC(=O)[C@@H]1CCCN1C(=O)[C@@H]1C[C@@H]2CCCC[C@@H]2N1C(=O)[C@H](N)CCCNC(=N)N)C(=O)N[C@@H](Cc1ccc(I)cc1)C(N)=O [rOicPaF(p-I), D-Arg-Oic-Pro-D-Ala-Phe(p-I)] (HELM PEPTIDE1{[dR].[O=C([C@@H]1C[C@@H]2CCCC[C@@H]2N1[*:1])[*:2]].P.[dA].[O=C([C@H](Cc1ccc(I)cc1)N[*:1])[*:2]].[am]}$$$$V2.0; N-terminus assumed)",0.023,23,36,88,25,6.25,0.78,–,–,59.2 ± 13,–
"C[C@@H](NC(=O)[C@@H]1CCCN1C(=O)[C@@H]1C[C@@H]2CCCC[C@@H]2N1C(=O)[C@H](N)CCCNC(=N)N)C(=O)N[C@@H](Cc1ccc([N+](=O)[O-])cc1)C(N)=O [rOicPaF(p-NO2), D-Arg-Oic-Pro-D-Ala-Phe(p-NO2)] (HELM PEPTIDE1{[dR].[O=C([C@@H]1C[C@@H]2CCCC[C@@H]2N1[*:1])[*:2]].P.[dA].[O=C([C@H](Cc1ccc([N+](=O)[O-])cc1)N[*:1])[*:2]].[am]}$$$$V2.0; N-terminus assumed)",0.033,33,26,47,50,6.25,1.56,–,–,–,87.9 ± 16
